The values below come from patent publication US20100291596A1, “SCREENING METHOD FOR AGENTS SUITABLE FOR THERAPY OF ALZHEIMER'S DISEASE” (FREIE UNIVERSITAT BERLIN, priority 2007, published 2010).

Structures are written as SMILES. Entries after “also recorded” stand apart in the source; their conditions may differ.

The target of data set [1] is T1, gamma-secretase (Homo sapiens, UniProt P49768).
T1 construct: HEK293 expressing SPA4CT-YFP were spread into a 96-well dish and were treated with NSAIDs or controls for 6 h; endogenous in cells; host or cells: HEK293 (ATCC CRL-1573)
As to the kind of experiment: Quantification of gamma-secretase inhibition: average YFP fluorescence of HEK293 cells expressing APP-CTF-YFP. The data set is classed as cell-based. The note with it: 6 h. The protocol:
(§1) To quantify the effects of NSAIDs on gamma-secretase activity, HEK293 expressing SPA4CT-YFP were spread into a 96-well dish and were treated with NSAIDs or controls for 6 h. Intensity of YFP fluorescence was quantified with adjusted filters in a 96-well fluorescence reader (company BertholdTech, Mithras). (i) Cells expressing a fusion protein comprising the substrate of gamma-secretase (APP-CTF) and a fluorescent protein (fp) are incubated with the drug candidate in a 96 well plate. Prior to addition to the cells, the drug is dissolved in EtOH or DMSO. Controls are (1) untreated culture medium, (2) culture medium containing EtOH or DMSO, and (3) culture medium with known inhibitors of gamma-secretase. After incubation for 6 h to 24 hours the fluorescence is determined. If gamma-secretase is active, the fusion protein is degraded and the fluorescent protein spreads in the cell, e.g., the cell cytoplasm. As a consequence, intensive fluorescence is not detectable. If the gamma-secretase is inhibited, the substrate of gamma-secretase accumulates at the plasma membrane resulting in an intensive (and traceable) fluorescence (see, for further experimental details and results FIGS. 1 and 1.II and the figure legend). Drug candidates which inhibit the biological activity (i.e. cleavage of the substrate) of gamma-secretase are discarded.

Data set [2] deals with T1, gamma-secretase. The data set can be described thus: Confocal laser scanning microscopy of subcellular distribution of APP-CTF-YFP in HEK293 cells expressing SPA4CT-YFP. The data set is classed as cell-based. The note with it: 6 h. The protocol:
HEK293 cells were transiently transfected with SPA4CT-YFP. After 24 h, cells were treated with varying concentrations (indicated in the figures) of different NSAIDs, gamma-secretase inhibitor N-[N-(3,5-difluorophenacetyl-L-alanyl)]-S-phenylglycine t-butyl ester (DAPT) or vehicle control for 6 h. The subcellular distribution of APP-CTF-YFP within living cells was analyzed by confocal laser scanning microscopy (LSM).
as §1, with “(i)” for “To quantify the effects of NSAIDs on gamma-secretase activity, HEK293 expressing SPA4CT-YFP were spread into a 96-well dish and were treated with NSAIDs or controls for 6 h. Intensity of YFP fluorescence was quantified with adjusted filters in a 96-well fluorescence reader (company BertholdTech, Mithras). (i)”, “Drug candidates which inhibit the biological activity (i.e. cleavage of the substrate) of gamma-secretase are discarded.” left out

The test system of data set [3] is SH-SY5Y cells. The data set can be described thus: MTS assay of viable SH-SY5Y cells for determination of cytotoxicity. As to conditions: 24 h. The data set is classed as cell-based, human. The protocol:
SH-SY5Y cells expressing SPA4CT wt were spread at a density of 30.000 cells per 96-well. The cell culture media (OptiMEM, Invitrogen or serum containing medium, Biochrom) were supplemented with NSAIDs in varying concentrations as well as positive controls (without treatment or vehicle control) and negative controls (0.01% to 0.5% Triton X-100). Each well was incubated with 100 μl of supplemented media for 24 h. Then, 20 μl of the MTS stain solution (Promega, cell viability assay) was added and after 2-4 h incubation time the absorbance at 562 nm was measured.
(§2) (ii) Initially, the cytotoxicity of the compounds in cultures of neuronal cells is determined using a cell proliferation assay or an assay based on viable cells (FIG. 2). Then, APP-CTF, APP or APPsw (APPsw: APP with the familial AD mutation “swedish” (K670N M671L); APP-CTF: APP-C-terminal fragment; CTF: after alpha- or beta-secretase cleavage) expressing cells are incubated with the drug candidate (two different concentrations, 96 well plate format). After incubation for 6 to 24 h the amount of Abeta42 secreted from the cell culture medium is determined using ELISA (see, for further experimental details and results FIG. 3 and the figure legend). Drug candidates causing a reduction of the amount of Abeta42 are assayed in a further step comprising ELISA and MALDI-MS. First, the amounts of Abeta40 and Abeta38 (as well as additional possible Abeta species) are quantified by use of ELISA. Then, the entire spectrum of secreted Abeta species is assayed using immunoprecipitation and MALDI-MS analysis (see, for further experimental details and results FIG. 4 and the figure legend). Compounds leading to reduced amounts of Abeta42 and increased amounts of shorter Abeta species are selected and assayed in a further screening step.
For orientation: Formazan colour is commonly taken as a measure of viable cells.

For data set [4], the system named is Abeta species secreted from SH-SY5Y cells which stably express wild type APP. The data set can be described thus: ELISA quantification of Abeta species secreted from SH-SY5Y cells stably expressing wild type APP. The data set is classed as cell-based, human. As to conditions: APP wt, 6 h. The protocol:
(§3) Quantification of Abeta 42, Abeta 40 and Abeta38 with ELISA Stably transfected cells were plated at a density of 2.8×10^5 cells per 12-well. The day after splitting, 200 μl of fresh media supplemented with NSAIDs or control vehicles were added and incubated for 6 h. For Abeta40 and Abeta42-specific ELISAs, 50 μl of media were analyzed according to the manufacturer's instruction (The Genetics company (TGC), Basel, Switzerland). The same protocol was applied to determine Abeta38 levels, except that the antibody BAP-29 (provided by M. Brockhaus, Roche, Basel, Switzerland) was used.
as §2
In general terms: An ELISA detects its analyte on a solid surface through an enzyme-linked reagent.

Data set [5] relates to Abeta species from APP G33A-transfected cells. As to the kind of experiment: ELISA quantification of Abeta species secreted from APP G33A-transfected cells. The data set is classed as cell-based. The protocol:
as §3
The effect of the drugs on the dimerization motif GxxxG of TMS of APP is assayed. Drug candidates were added to the cell culture medium containing APP-CTF, APP or APPsw expressing neuronal cells or cells containing the APP-processing machinery as described in Example 2. In addition, cell lines were assayed expressing altered APP molecules characterized by a mutated GxxxG motif. Binding of the compounds to the APP GxxxG motif results in an altered processing only of the wild type proteins, but not the altered GxxxG motif of mutants (see, for further experimental details and results FIG. 5 and the figure legend).
Detection and characterization of the binding of the drug candidate to the GxxxG motif. Binding of the compounds to Abeta42 is verified by use of BIACORE and the KD-value is determined. Binding of the compounds to the GAIIG motif should lead to lack of binding to corresponding Abeta42-fragments or GxxxG mutant peptides. Similarly, using ELISA with synthetical peptides binding of NSAIDs can be determined via a competition assay (see, for further experimental details and results FIG. 6 and the figure legend).

The target of data set [6] is T2, transmembrane sequence Abeta29-42 wt (Homo sapiens, UniProt P05067).
T2 construct: the amino acid residues 29-42 of the Abeta region ([…]); expressed in transfected cells; host or cells: E. coli FHK12
As to the kind of experiment: ToxR system: dimerization of transmembrane sequence Abeta29-42 wt. The data set is classed as cell-based. The protocol: ToxR-system E. coli FHK12 cells were transformed with accordant DNA constructs encoding for ToxR-fusionproteins containing at least a part of the APP transmembrane sequence (e.g. sequence Abeta 29-42). Cells were grown in either FHK medium or minimal medium (e.g. M9 medium) supplemented with NSAIDs and corresponding vehicle controls for 6 h. Then, aliquots of the cells were lysed and beta-galactosidase activity was measured (Langosch et al., 1996).
The second screening step is carried out in order to find compounds selectively modulating only the processing of APP via binding to the transmembrane sequence (TMS) of APP. The APP-GxxxG motif is, inter alia, a perfect target structure for selecting compounds characterized by high affinity binding (Munter et al., EMBO J. 26 (2007), 1702-12). In the bacterial assay system (ToxR system) only the transmembrane sequence of APP containing the amino acid residues 29-42 of the Abeta region (GAIIGLMVGGVVIA) is expressed as part of a fusion protein. […] The rate of transcription correlates with the degree of dimerization and can be determined by measuring the conversion of a coloured substrate. […] After incubation for 2 to 24 h the degree of dimerization is determined. Binding of compounds to the amino acid sequence Abeta 29-42 results in weakening of dimerization and this is determined by measuring the decrease of enzymatic activity. […]

As for `C[C@H](NC(=O)Cc1cc(F)cc(F)c1)C(=O)N[C@H](C(=O)OC(C)(C)C)c1ccccc1` [DAPT, N-[N-(3,5-difluorophenacetyl-L-alanyl)]-S-phenylglycine t-butyl ester], the “Average fluorescence compared to the DMSO control” value in data set [1] (1 μM) is on record as “increased fluorescence”. The “Localization of APP-CTF-YFP (confocal images)” value in data set [2] (1 μM added to cell culture medium) is “APP-CTF preferably accumulates at the plasma membrane”.
With `CC(C)OC(=O)C(C)(C)Oc1ccc(C(=O)c2ccc(Cl)cc2)cc1` [Fenofibrate], the “Concentration at which compound is no longer toxic (MTS assay)” value in data set [3] stood at 5 µM.
Take `CSc1ccc(/C=C2/C(C)=C(CC(=O)O)c3cc(F)ccc32)cc1` [sulindac sulfide]: in data set [4], the “Secreted amount of Abeta38” value was “low and does not substantially reduce”; the “Secreted amount of Abeta40” value is “low and does not substantially reduce”; the “Secreted amount of Abeta42” value is reported as “decreases in a concentration dependent manner; also recorded: reduces”. Besides, in data set [5], the “Secreted amount of Abeta38” value is recorded as “does not substantially reduce”, the “Secreted amount of Abeta40” value is on record as “does not substantially reduce” and the “Secreted amount of Abeta42” value is “no impact”. Besides, the “Average fluorescence compared to the DMSO control” value in data set [1] (50 μM) was “slight increase of fluorescence”. In addition, the “Localization of APP-CTF-YFP (confocal images)” value in data set [2] (30 μM) was “APP-CTF preferably accumulates at the ER/nuclear membrane”. Besides, the “Concentration at which compound is no longer toxic (MTS assay)” value in data set [3] came to 150 µM. In addition, in data set [6], the “Stability of dimerization of the transmembrane sequence” value is reported as “weakens the stability of dimerization of the transmembrane sequence of Abeta29-42 in a concentration dependent manner”.
In the case of `CC(C)Cc1ccc(C(C)C(=O)O)cc1` (stereo not shown) [Ibuprofen], the “Average fluorescence compared to the DMSO control” value in data set [1] (50 μM) was “slight increase of fluorescence”. Besides, the “Concentration at which compound is no longer toxic (MTS assay)” value in data set [3] was 250 µM. For the same molecule, the “Stability of dimerization of the transmembrane sequence” value in data set [6] is “weakens the strength of dimerization”.
